Test results from patent US3952101A, “α-Amino methyl-5-hydroxy-2-pyridinemethanols” (SmithKline Corporation, priority 1975, dated 1976).
In brackets after ≈: the same amount, converted by molar mass.

How the values were obtained:
[1] = tested on: guinea pig tracheal chain preparations; test: effect on spontaneous tone of guinea pig tracheal chain preparations (β-stimulant direct relaxant effect on airway smooth muscle); assay type: cell-based
Description: (§1) Two in vitro test systems used for determining selective β-stimulant activity are: (1) effect on spontaneous tone of guinea pig tracheal chain preparations as a measure of β-stimulant (direct relaxant) effect on airway smooth muscle, and (2) effect on rate of spontaneously beating right atria of the guinea pig as a measure of β-stimulant effect on cardiac muscle.

[2] = tested on: guinea pig right atria; test: effect on rate of spontaneously beating right atria of the guinea pig (β-stimulant effect on cardiac muscle); assay type: cell-based; details: Cavia porcellus; in vitro, at a dose of 30.0 mcg/ml; read-out: increase in the rate of contraction of guinea pig right atria
Description: as §1

| EC50 ([1]; Cavia porcellus, in vitro, spontaneous tone, read-out: ED50, relaxes the spontaneous tone of guinea pig tracheal ring preparation) | SMILES | absolute separation ratio ([1]; tracheal versus right atria activity, similar in vitro preparations) | activation at 30 µg/mL [2] |
| --- | --- | --- | --- |
| – | CC(C)NCC(O)c1ccc(O)c(O)c1 (stereo not drawn) [d,1-isoproterenol, reference compound] | 0.5 | – |
| 8.8 ng/mL (≈ 0.0291 µM) | CC(C)(C)NCC(O)c1ccc(O)c(CS(C)(=O)=O)n1 (stereo not drawn) [α-(t-butylaminomethyl)-5-hydroxy-6-methanesulfonylmethyl-2-pyridinemethanol] | – | 13% |
